Assay results from patent publication US20240415819A1, “MACROCYCLIC COMPOUNDS AS PROTEASOME SUBUNIT BETA TYPE-5 INHIBITORS” (Lead Discovery Center GmbH, priority 2021, published 2024).

What was measured:
[1] = target: T1, β5 subunit of the human immunoproteasome (IPS) (Homo sapiens, UniProt P28062); assay: β5 inhibition assay, human immunoproteasome (Suc-LLVY-AMC); assay type: biochemical; conditions: IC50 class, Suc-LLVY-AMC substrate
T1 construct: purchased Boston Biochem E-370
Description: The enzymatic activity of the β5 subunit of the human constitutive proteasome (CPS) is analyzed. In another assay, which differs from the assay of the human constitutive proteasome only in using the human immunoproteasome (IPS) the enzymatic activity of the β5 subunit of the human immunoproteasome (IPS) is analyzed. Incubation of the enzyme with its fluorogenic substrate Suc-LLVY-AMC leads to liberation of the fluorescent dye AMC which can be measured with a suitable plate reader. • 100 mM HEPES pH7.5 • 50 mM NaCl • 0.02% SDS • 1 mM DTT (add fresh) • Victor X5 (Perkin Elmer) • Label: Umbeliferone (0.1s) • Excitation wavelength: 355 nm • Emission wavelength: 460 nm • 4 μl human cPS or IPS enzyme in assay buffer (final assay concentration 1 nM) or 4 μl assay buffer for negative controls • Compound addition via acoustic dispenser (Echo 520, Labcyte) • Mix and incubate @ RT for 10 min • 4 μl Suc-LLVY-AMC substrate (final assay concentration 22.6 μM) • Mix and incubate @ RT for 4 h (dark) • Stop reaction with 4 μl Bortezomib (final assay concentration 1 μM) • 15 min @ RT • Measure (Excitation 355 nm; Emission 460 nm)

[2] = test system: A549 (human lung carcinoma cell line); assay: Glo assay of A549 cells (Table 3; ProteasomeGlo plating scheme); assay type: cell-based; conditions: Homo sapiens; A549 cells; read-out: PGLo A549
From the text: Inhibition is indicated as IC50 [nM] (“-”=not measured). […] • Chymotrypsin-Like Cell-Based Proteasome-GloTM Assay (Promega; […]) • Cell culture 384-well plates (Greiner BioOne; 781080) • Dispensing cassette, MultiDrop Standard tube dispensing cassette (Thermo Scientific; 24072670) • DPBS (Pan BioTech; P04-36500) • Cell culture 384-well plates (Greiner BioOne; 781080) • CPD source plate: diamond-shape plate (Labcyte; LP-0200) • Intermediate plate (Labcyte; P-05525) [table] • a. Remove the plates with cells from the incubator. • b. Take all the plates including the compound plate, intermediate plate and Staurosporine plate to the ECHO. • c. Click on “Open” in the ECHO software and select the protocol “QLI5_25ul_30 uM-Grenier”. • d. Follow the on-screen prompts and instructions once you click “Start” to insert the compound plate, intermediate plate and destination plates. • e. Change the final number of destination plates on the program. • f. Follow the on-screen prompts and instructions once you click “Start” to load the Staurosporine and destination plates. • g. Once all the compounds, DMSO and Staurosporine have been transferred, place the destination plates in a wet tissue box. • h. Place the destination plates back into the incubator and incubate at 37° C., 5% CO2 for 105 minutes. • i. Re-seal all the compound+Stauro diamond and intermediate plates and store in the dark. Chymotrypsin like ProteasomeGlo Assay • 1. Thaw the components of the ProteasomeGlo assay at room temperature including the ProteasomeGlo Buffer, the lyophilized Luciferin Detection Reagent and the Suc-LLVY-Glo Substrate. • 2. Reconstitute the Luciferin Detection Reagent in the amber coloured bottle by adding 50 ml of the ProteasomeGlo Buffer. • 3. Vortex the Suc-LLVY-Glo Substrate briefly to reconstitute the Substrate well. • 4. Spin down the Substrate and add 250 μl of the Substrate to the reconstituted Luciferin Detection Reagent from step 2. • 5. Briefly vortex the amber bottle with the mix to prepare a homogenous solution. • 6. Place the mix prepared in step 5 to sit at room temperature for 60 minutes. • 7. After 60 minutes, pipette 25 μl of the mix from step 5 into all wells with the cells. • 8. Shake the plates for 2-5 minutes to ensure the complete mixing of the ProteasomeGlo reagent with the cells. • 9. Leave the plates in the dark for 10-15 minutes. • 10. Measure the luminescence read-out using the Viktor and the protocol “Luminescence_384Well_0.2 sec”. (Note: The Protoeasome-GloTM Reagent (combined Proteasome-GloTM Substrate, Proteasome-GloTM Buffer and Luciferin Detection Reagent) can be stored at 4° C. or -20° C. for 1 month with minimal loss of activity.)

HT-29 cells = assay: CellTiter-Glo luminescent cell viability assay with HT-29 cells (72h incubation); assay type: cell-based, human; conditions: Homo sapiens, HT-29, HT29 cells, read-out: CTG HT29
Description: Cell Titer Glo Viability Assay with HT-29 Cells (72h Incubation) The CellTiter-Glo Luminescent Cell Viability Assay (Promega) is a homogeneous method of determining the number of viable cells in culture. It is based on quantification of ATP, indicating the presence of metabolically active cells. On day 1 400 HT-29 cells per well are seeded in white 384well plates (Greiner, #781080) in 25 μl cell culture medium (DMEM (PAN-Biotech #P04-03590)+10% FCS+glutamine). After incubation for 24 h at 37° C./5% CO2 compounds or DMSO are added at different concentrations by Echo Liquid Handling Technology. Cells are further incubated in humidified chambers for 72 h at 37° C. and 5% CO2. Cells treated with the compound vehicle DMSO are used as positive controls and cells treated with 10 μM Staurosporine serve as negative controls. At day 5-72h after compound addition—the CellTiter Glo Reagent is prepared according to the instructions of the kit (Promega Inc.): Reagent is mixed 1:1 with cell culture medium. Thereon, mixture and assay plates are equilibrated at room temperature for 20 min. Equal volumes of the reagent-medium-mixture is added to the volume of culture medium present in each well. The plates are mixed at […] for 2 minutes on an orbital shaker. The microplates are then incubated at room temperature for 10 minutes for stabilization of the luminescent signal. Following incubation the luminescence is recorded on a Victor microplate reader (Perkin Elmer) using a 200 ms integration time. The data is then analyzed with Excel using the XLFIT Plugin (dose response Fit 205) for IC50-determination. As quality control the Z′-factor is calculated from 16 positive and negative control values. […] Inhibition is indicated as IC50 [nM] (“-”=not measured).

[3] = target: T2, β5 subunit of the human constitutive proteasome (CPS) (Homo sapiens, UniProt P28074); assay: β5 inhibition assay, human constitutive proteasome (Suc-LLVY-AMC); assay type: biochemical; conditions: IC50 class, Suc-LLVY-AMC substrate
T2 construct: purchased Boston Biochem E-360
Description: The enzymatic activity of the β5 subunit of the human constitutive proteasome (CPS) is analyzed. In another assay, which differs from the assay of the human constitutive proteasome only in using the human immunoproteasome (IPS) the enzymatic activity of the β5 subunit of the human immunoproteasome (IPS) is analyzed. […] Inhibition is indicated as IC50 [nM] (“-”=not measured).

**Q.** Which results are given for Cc1ccc2cc1CNC(=O)[C@H](CCc1ccccc1)NC(=O)[C@@H](NC(=O)Cc1ccccn1)CC(=O)N1CCCC(CCO2)C1 (stereo partly drawn) [Compound 331, N-((9S,12S)-5^4-methyl-8,11,14-trioxo-9-phenethyl-4-oxa-7,10-diaza-1(3,1)-piperidina-5(1,3)-benzenacyclotetradecaphane-12-yl)-2-(pyridin-2-yl)acetamide]?
**A.** IC50 [1]: < 100 nM; IC50 [2]: < 100 nM; IC50 (HT-29 cells): < 100 nM; IC50 [3]: < 100 nM

**Q.** How did the IC50 [1] turn out when Cc1ccc2cc1CNC(=O)[C@H](CCc1ccccc1)NC(=O)[C@@H](NC(=O)OCc1ccccc1)CC(=O)N1CCC(CCO2)C1 (stereo partly drawn) [Compound 325, benzyl ((9S,12S)-5^4-methyl-8,11,14-trioxo-9-phenethyl-4-oxa-7,10-diaza-1(3,1)-pyrrolidina-5(1,3)-benzenacyclotetradecaphane-12-yl)carbamate] was run?
**A.** < 100 nM

**Q.** And the IC50 [2]?
**A.** < 100 nM

**Q.** What about the IC50 (HT-29 cells) of the same molecule?
**A.** < 100 nM

**Q.** What about the IC50 [3] of the same molecule?
**A.** < 100 nM

**Q.** With Cc1ccc2cc1CNC(=O)[C@H](CCc1ccccc1)NC(=O)[C@@H](NC(=O)Cc1nc(-c3ccccc3)n[nH]1)CC(=O)N1CCCC(CCO2)C1 (stereo partly drawn) [Compound 328, N-((9S,12S)-5^4-methyl-8,11,14-trioxo-9-phenethyl-4-oxa-7,10-diaza-1(3,1)-piperidina-5(1,3)-benzenacyclotetradecaphane-12-yl)-2-(3-phenyl-1H-1,2,4-triazol-5-yl)acetamide] as the molecule, how does the IC50 [1] read?
**A.** < 100 nM

**Q.** And the IC50 [2]?
**A.** 100 to 500 nM

**Q.** And the IC50 (HT-29 cells)?
**A.** < 100 nM

**Q.** What about the IC50 [3] of the same molecule?
**A.** < 100 nM

**Q.** Which results are given for CCOC(C(=O)N[C@H]1CC(=O)N2CCCC(CCOc3ccc(C)c(c3)CNC(=O)[C@H](CCc3ccccc3)NC1=O)C2)c1ccc(NC(C)=O)cc1 (stereo partly drawn) [Compound 324, 2-(4-acetamidophenyl)-2-ethoxy-N-((9S,12S)-5^4-methyl-8,11,14-trioxo-9-phenethyl-4-oxa-7,10-diaza-1(3,1)-piperidina-5(1,3)-benzenacyclotetradecaphane-12-yl)acetamide]?
**A.** IC50 [1]: < 100 nM; IC50 [2]: < 100 nM; IC50 (HT-29 cells): < 100 nM; IC50 [3]: < 100 nM

**Q.** What does the source list for CC(=O)N[C@H]1CCC(=O)N2CCC2(C)COc2ccc(C)c(c2)CNC(=O)[C@H](CCc2ccccc2)NC1=O (stereo partly drawn) [Compound 265, N-((8S,11S)-1^2,4^4-dimethyl-7,10,14-trioxo-8-phenethyl-3-oxa-6,9-diaza-1(2,1)-azetidina-4(1,3)-benzenacyclotetradecaphane-11-yl)acetamide]?
**A.** IC50 [1]: 100 to 500 nM; IC50 [2]: > 5000 nM; IC50 (HT-29 cells): 100 to 500 nM

**Q.** With CC(=O)N[C@H]1CCCC(=O)NCCCCOc2ccc(C)c(c2)CNC(=O)[C@H](CCc2ccccc2)NC1=O [Compound 269, N-((12S,15S)-1^4-methyl-8,13,16-trioxo-15-phenethyl-2-oxa-7,14,17-triaza-1(1,3)-benzenacyclooctadecaphane-12-yl)acetamide] as the molecule, how does the IC50 [1] read?
**A.** < 100 nM

**Q.** What about the IC50 [2] of the same molecule?
**A.** 1000 to 5000 nM

**Q.** And the IC50 (HT-29 cells)?
**A.** 1000 to 5000 nM

**Q.** What about the IC50 [3] of the same molecule?
**A.** 1000 to 5000 nM

**Q.** How did the IC50 [1] turn out when Cc1cc2cc(c1C)CNC(=O)[C@H](CCc1ccccc1)NC(=O)CCC(=O)N1CCCC(CCO2)C1 (stereo partly drawn) [Compound 95, (9S)-5^4,5^5-dimethyl-9-phenethyl-4-oxa-7,10-diaza-1(3,1)-piperidina-5(1,3)-benzenacyclotetradecaphane-8,11,14-trione] was run?
**A.** < 100 nM

**Q.** And the IC50 [2]?
**A.** 1000 to 5000 nM

**Q.** And the IC50 (HT-29 cells)?
**A.** 500 to 1000 nM

**Q.** What about the IC50 [3] of the same molecule?
**A.** < 100 nM

**Q.** How did the IC50 [1] turn out when Cc1ccc2cc1CNC(=O)[C@H](CCc1ccccc1)NC(=O)[C@@H](NC(=O)Cc1cn3ccsc3n1)CC(=O)N1CCCC(CCO2)C1 (stereo partly drawn) [Compound 330, 2-(imidazo[2,1-b]thiazol-6-yl)-N-((9S,12S)-5^4-methyl-8,11,14-trioxo-9-phenethyl-4-oxa-7,10-diaza-1(3,1)-piperidina-5(1,3)-benzenacyclotetradecaphane-12-yl)acetamide] was run?
**A.** < 100 nM

**Q.** And the IC50 [2]?
**A.** < 100 nM

**Q.** What about the IC50 (HT-29 cells) of the same molecule?
**A.** < 100 nM

**Q.** And the IC50 [3]?
**A.** < 100 nM

**Q.** Which results are given for COC(C(=O)N[C@H]1CC(=O)N2CCCC(CCOc3ccc(C)c(c3)CNC(=O)[C@H](CCc3ccccc3)NC1=O)C2)c1ccc(NC(C)=O)cc1 (stereo partly drawn) [Compound 323, 2-(4-acetamidophenyl)-2-methoxy-N-((9S,12S)-5^4-methyl-8,11,14-trioxo-9-phenethyl-4-oxa-7,10-diaza-1(3,1)-piperidina-5(1,3)-benzenacyclotetradecaphane-12-yl)acetamide]?
**A.** IC50 [1]: < 100 nM; IC50 [2]: < 100 nM; IC50 (HT-29 cells): < 100 nM; IC50 [3]: < 100 nM

**Q.** Cc1ccc2cc1CNC(=O)[C@H](CCc1ccccc1)NC(=O)[C@@H](NC(=O)C(C)c1ccc3ncccc3c1)CC(=O)N1CCCC(CCO2)C1 (stereo partly drawn) [Compound 369, N-((9S,12S)-5^4-methyl-8,11,14-trioxo-9-phenethyl-4-oxa-7,10-diaza-1(3,1)-piperidina-5(1,3)-benzenacyclotetradecaphane-12-yl)-2-(quinolin-6-yl)propanamide] was tested. Which IC50 [1] did it give?
**A.** < 100 nM

**Q.** What about the IC50 [2] of the same molecule?
**A.** < 100 nM

**Q.** What about the IC50 (HT-29 cells) of the same molecule?
**A.** < 100 nM

**Q.** And the IC50 [3]?
**A.** < 100 nM
